How the values were obtained:
[1] = Eastmond et al., 2008; Katz & salem, 1993; cited from earlier work
[2] = DPPH free radical antioxidant activity assay; format: biochemical; conditions: dilution 1 ml, wavelength 517 nm; for Inhibition: DPPH assay
Method: Antioxidant activity of the synthesized Cr(III) Schiff base complexes was tested using the free radical compound 2,2-diphenyl-1-picrylhydrazyl(DPPH) (25,26). This compound has a violet color when dissolved in ethanol and a strong absorption maximum centered at around 515-520 nm. DPPH became colorless or pale yellow when neutralized. An aliquot of DPPH (0.3 ml) in ethanol ([…]) was added to ethanol(3 ml), followed by addition of Cr(III) complex dissolve in ethanol (0.5 ml)(total Volume 3.8 ml). A UV/visible spectrophotometer was used to monitor the color change at 517 nm after 100 minutes of reaction. A blank sample contained a mixture of the Cr(III) complex in ethanol (0.5 ml) and ethanol (3.3 ml) (Total Volume 3.8 ml) without any DPPH (no violet color). A control sample contained a solution of DPPH (0.3 ml) and ethanol (3.5 ml) (total volume 3.8 ml) without any Cr (III) complex (Violet color remains). The amount of scavenging activity (%) was determined by the method of Mensor et al. (27).
Finally, the % scavenging activities for Schiff base ligands and derived Cr(III) complexes were calculated by applying the formula
Scavenging activity=(Ac−At)/Ac×100%
Where Ac and At represent the absorbance of the control and test samples, respectively (Choudhary et al., 2011)^28

[Cr+3] [Cr(III) ion]
Acute toxicity range [1]: 1.5 to 3.3 mg/kg

Cc1ccc(NC(=O)CC(=O)NNc2cc[nH]c2)cc1 [Ligand 1]
Inhibition [2]: 0.077 | DPPH Equivalent Antioxidant activity [2]: 1.253 | Total Antioxidant activity [2]: 65%

CC/C=N\NC(=O)CC(=O)Nc1ccc(C)cc1 [Ligand 2, N-[4-methylphenyl)-3-oxo-3[(2Z)-2-propylidene hydrazinyl] propanamide]
Inhibition [2]: 0.074 | DPPH Equivalent Antioxidant activity [2]: 1.223 | Total Antioxidant activity [2]: 66%

— patent US20230080477A1, “PROCESS OF SYNTHESIS OF NOVEL CHROMIUM (III) COMPLEXES OF SCHIFF BASE LIGANDS AND THEIR USE THERE OF AS THERAPEUTIC AGENTS” (priority 2021, published 2023)
